# Measurements reported in patent US12030841B2, “Honokiol crystal forms, amorphous form and preparation thereof” (Chengdu Jinrui Foundation Biotech Co., Ltd., priority 2020, dated 2024).
# Assays:
# [1] = Solubility test in PBS (saturated solution, HPLC external standard); format: physicochemical; settings: shaking at 37 °C for 4 h, supernatant by HPLC
# Description: Since the solubility of the drug directly affects the dissolution and oral bioavailability of the drug preparation, the inventor investigated the solubility of the honokiol crystal forms A, B and C in PBS. Preparing respective saturated solutions of the honokiol crystal forms A, B and C, shaking at 37 °C for 4 h, and centrifuging and transferring the supernatant into a high performance liquid chromatograph. At the same time, preparing a standard solution of the honokiol (source: China Institutes for Food and Drug Control, Batch No.: 110730-201915, ID: EH2H-BMTW), and using the external standard method for quantification.
# [2] = Stress tests (high temperature, high humidity, high-light irradiation), related substances by HPLC; format: physicochemical; settings: for purity after the high humidity test: high humidity (relative humidity 92.5%, 25° C.); for purity after the high temperature test: high temperature (60° C.); for purity after intense light / high-light irradiation test: high-light irradiation (illuminance 45001×+5001×)
# Description: Treating the honokiol crystal forms A, B and C under high temperature (60° C.), high humidity (relative humidity 92.5%, 25° C.) and high-light irradiation (illuminance 45001×+5001×), respectively, diluting with methanol, and investigating the changes of related substances through testing with HPLC.
solubility [1],purity before the stress test [2],purity after the high humidity test [2],purity after the high temperature test [2],purity after intense light / high-light irradiation test [2],"solubility at 4 h ([1]; PBS, 37 °C, aqueous buffer, thermodynamic from solid)",Compound
48.12 µg/mL,99.86%,99.59%,99.36%,99.31%,–,"C=CCc1ccc(O)c(-c2ccc(O)c(CC=C)c2)c1 [honokiol crystal form C, 3′,5-di-2-propenyl-1,1′-biphenyl-2,4′-diphenol]"
–,99.88%,99.70%,99.70%,99.60%,43.7 µg/mL,"C=CCc1ccc(O)c(-c2ccc(O)c(CC=C)c2)c1 [honokiol crystal form B, 3′,5-di-2-propenyl-1,1′-biphenyl-2,4′-diphenol]"
41.35 µg/mL,99.83%,99.67%,99.63%,99.64%,–,"C=CCc1ccc(O)c(-c2ccc(O)c(CC=C)c2)c1 [honokiol crystal form A, 3′,5-di-2-propenyl-1,1′-biphenyl-2,4′-diphenol]"
